Assay results reported in patent US20260184733A1, “CRYSTAL FORM OF NEUROKININ-1 ANTAGONIST PRODRUG COMPOUND” (JIANGSU HENGRUI PHARMACEUTICALS CO., LTD., priority 2022, published 2026).

Experiments:
Type in all cases: physicochemical
[1] = Solvent residue of the crystal forms determined by gas chromatography
Method: The solvent residue of the crystal form of the compound represented by formula I was determined by gas chromatography, as shown in the table below.

[2] = Dissolution of the raw material in 50% tert-butanol solution when preparing the lyophilized composition; details: 4.36% (w/v) in 50% tert-butanol with 5% mannitol, stirred at room temperature
Method: Tert-butanol and water were mixed at a volume ratio of 1:1 to form a 50% tert-butanol solution. 90% of the target volume of the solution was taken, and 5% (mass volume percentage) of mannitol and 4.36% of the raw material of the compound represented by formula I were added. The mixture was stirred at room temperature for dissolution (dissolution being considered as the absence of significant blocky or flocculent insoluble substances in the solution). The pH was adjusted to 5 with dilute hydrochloric acid or sodium hydroxide, filtration was performed with a […] organic filtration membrane to obtain a clear solution, and the volume of the clear solution was made constant with 50% tert-butanol. The above-mentioned solution was stored at 4° C. before subpackaging. After subpackaging according to the target volume, half of a stopper was pressed, and a freeze-drying procedure was run. After the completion of the procedure, nitrogen was filled, the remaining stopper was pressed, and the freeze-dried compounds were taken out of the box.

[3] = Crystal form conversion on stirring in ethyl acetate at room temperature; details: 1.0 g in 1.5 mL ethyl acetate, stirred at room temperature, filtered, dried under vacuum
Method: 1.0 g of the crystal form I of the compound represented by formula I was added to 1.5 mL of ethyl acetate, and the mixture was stirred at room temperature, filtered, and dried under vacuum.
1.0 g of the crystal form III of the compound represented by formula I was added to 1.5 mL of ethyl acetate, and the mixture was stirred at room temperature, filtered, and dried under vacuum.

| SMILES | Solvent residue, comparison of the crystal forms [1] | Solvent residue: Ethyl acetate [1] | Solvent residue: Ethylene glycol dimethyl ether [1] | Solvent residue: Methyl tert-butyl ether [1] | Dissolution behaviour of the raw material [2] | Solvent residue: 1,4-Dioxane [1] | Crystal form after slurrying [3] | Solvent residue: Isopropyl ether [1] |
| --- | --- | --- | --- | --- | --- | --- | --- | --- |
| C[C@@H](OC[C@@]1(c2ccccc2)CC[C@]2(CCC(=O)N2)CN1C(=O)OCOP(=O)(O)O)c1cc(C(F)(F)F)cc(C(F)(F)F)c1 [Crystal form II] | lowest solvent residue | 0.0105% | Not detected | 0.1867% | dissolved faster, no agglomeration occurred | – | – | – |
| C[C@@H](OC[C@@]1(c2ccccc2)CC[C@]2(CCC(=O)N2)CN1C(=O)OCOP(=O)(O)O)c1cc(C(F)(F)F)cc(C(F)(F)F)c1 [Crystal form III] | – | – | Not detected | – | – | 6.3% | conversion to the crystal form II | – |
| C[C@@H](OC[C@@]1(c2ccccc2)CC[C@]2(CCC(=O)N2)CN1C(=O)OCOP(=O)(O)O)c1cc(C(F)(F)F)cc(C(F)(F)F)c1 [Crystal form I] | – | 0.0293% | Not detected | – | – | – | conversion to the crystal form II | 12.0% |
| C[C@@H](OC[C@@]1(c2ccccc2)CC[C@]2(CCC(=O)N2)CN1C(=O)OCOP(=O)(O)O)c1cc(C(F)(F)F)cc(C(F)(F)F)c1 [amorphous form] | – | – | – | – | agglomerated in a large amount in the solution, resulting in the inability to completely dissolve the raw material | – | – | – |
